This is an account of results in US11364256B2, “Viral inhibition” (Monash University, priority 2020, dated 2022).

This assay concerns SARS-CoV-2 clinical isolate Australia/VIC01/2020. The experiment in a line: Multidose treatment of SARS-CoV-2 infected Vero/hSLAM or CALU-3 cells, viral load by real-time PCR. In kind it is cell-based. As to conditions: drug replaced at 8, 24, 32 and 48 h, Vero/hSLAM or CALU-3, MOI 0.01. The method, then: Vero/hSLAM cells (FIG. 4, panels A/C) or CALU-3 (FIG. 4, panels B/D) cells were infected with SARS-CoV-2 clinical isolate Australia/VIC01/2020 (MOI=0.01) for 2 h prior to addition of vehicle (DMSO), Ivermectin (A/B) or Moxidectin (C/D) at the concentrations indicated in FIG. 4. Supernatant was harvested at 8, 24, 32 and 48 h and replaced with fresh media containing the same concentration of drug or DMSO. Samples were quantitated for viral load using real-time PCR. Results represent mean±SD (n=6) relative to DMSO alone under the same conditions. Three parameter dose response curves were fitted using GraphPad prism. The data presented in FIG. 4 are single typical graphs from a series of two similar experiments.
For orientation: Real-time PCR tracks product formation cycle by cycle.

Consider ivermectin, for which the “effect of multidose treatment on SARS-CoV-2 anti-viral activity” value was “enhances SARS-CoV-2 anti-viral activity compared to single treatment”.
